Measurements: US8742129B2, “Crystalline forms of febuxostat” (Teva Pharmaceuticals Industries Ltd., priority 2009, dated 2014)

Test: Solubility in ethanol of crystalline forms
Type: physicochemical
Details: compared to other crystalline forms

Cc1nc(-c2ccc(OCC(C)C)c(C#N)c2)sc1C(=O)O [Febuxostat form F10, 2-(3-cyano-4-isobutyloxyphenyl)-4-methylthiazole-5-carboxylic acid]
solubility in ethanol: better solubility in ethanol compared to other crystalline forms
